We go through 1 compound from patent US11390603B2, “Crystalline forms of a biphenyl compound” (THERAVANCE BIOPHARMA R&D IP, LLC, priority 2005, dated 2022).

Where only a bound is given, the exact number is not on record here.

One test addresses T1, hM3 receptor (Homo sapiens, UniProt P20309).
T1 construct: expressed in transfected cells
In words: Blockade of agonist-mediated calcium release via FLIPR. It is filed as cell-based. The settings on record: CHO cells stably expressing the hM3 receptor; this or a similar assay. An excerpt: Muscarinic receptor subtypes (M1, M3 and M5 receptors), which couple to Gq proteins, activate the phospholipase C (PLC) pathway upon agonist binding to the receptor. As a result, activated PLC hydrolyzes phosphatyl inositol diphosphate (PIP2) to diacylglycerol (DAG) and […] (IP3), which in turn generates calcium release from intracellular stores, i.e., endoplasmic and sarcoplasmic reticulum. The FLIPR (Molecular Devices, Sunnyvale, Calif.) assay capitalizes on this increase in intracellular calcium by using a calcium sensitive dye (Fluo-4AM, Molecular Probes, Eugene, Oreg.) that fluoresces when free calcium binds. This fluorescence event is measured in real time by the FLIPR, which detects the change in fluorescence from a monolayer of cells cloned with human M1 and M3, and chimpanzee M5 receptors. Antagonist potency can be determined by the ability of antagonists to inhibit agonist-mediated increases in intracellular calcium. […]
To determine antagonist potency, the dose-dependent stimulation of intracellular Ca^2+ release for oxotremorine is first determined so that antagonist potency can later be measured against oxotremorine stimulation at an EC90 concentration. […]
The change of fluorescence is expressed as maximum fluorescence minus baseline fluorescence for each well. […]

Another test deals with guinea pigs. In words: Duration of bronchoprotection in guinea pig model of acetylcholine-induced bronchoconstriction. It counts as in vivo. The settings on record: 1.5 hours post-dose, inhalation. The protocol: Groups of six male guinea pigs (Duncan-Hartley (HsdPoc:DH) Harlan, Madison, Wis.) weighing between 250 and 350 g are individually identified by cage cards. Throughout the study animals are allowed access to food and water ad libitum.
Test compounds are administered via inhalation over 10 minutes in a whole-body exposure dosing chamber (R&S Molds, San Carlos, Calif.). The dosing chambers are arranged so that an aerosol was simultaneously delivered to 6 individual chambers from a central manifold. Guinea pigs are exposed to an aerosol of a test compound or vehicle (WFI). […] This is measured gravimetrically by comparing pre-and post-nebulization weights of the filled nebulizer.
The bronchoprotective effects of test compounds administered via inhalation are evaluated using whole body plethysmography at 1.5, 24, 48 and 72 hours post-dose.
Forty-five minutes prior to the start of the pulmonary evaluation, each guinea pig is anesthetized with an intramuscular injection of ketamine (43.75 mg/kg), xylazine (3.50 mg/kg) and acepromazine (1.05 mg/kg). […] The depth of anesthesia is monitored and adjusted if the animal responds to pinching of its paw or if the respiration rate is greater than 100 breaths/minute. […]
Starting this program initiates the experimental protocol and data collection. […] By integrating this signal over time, a measurement of […] is calculated for each breath. […]

T1 sequence (P20309 whole entry): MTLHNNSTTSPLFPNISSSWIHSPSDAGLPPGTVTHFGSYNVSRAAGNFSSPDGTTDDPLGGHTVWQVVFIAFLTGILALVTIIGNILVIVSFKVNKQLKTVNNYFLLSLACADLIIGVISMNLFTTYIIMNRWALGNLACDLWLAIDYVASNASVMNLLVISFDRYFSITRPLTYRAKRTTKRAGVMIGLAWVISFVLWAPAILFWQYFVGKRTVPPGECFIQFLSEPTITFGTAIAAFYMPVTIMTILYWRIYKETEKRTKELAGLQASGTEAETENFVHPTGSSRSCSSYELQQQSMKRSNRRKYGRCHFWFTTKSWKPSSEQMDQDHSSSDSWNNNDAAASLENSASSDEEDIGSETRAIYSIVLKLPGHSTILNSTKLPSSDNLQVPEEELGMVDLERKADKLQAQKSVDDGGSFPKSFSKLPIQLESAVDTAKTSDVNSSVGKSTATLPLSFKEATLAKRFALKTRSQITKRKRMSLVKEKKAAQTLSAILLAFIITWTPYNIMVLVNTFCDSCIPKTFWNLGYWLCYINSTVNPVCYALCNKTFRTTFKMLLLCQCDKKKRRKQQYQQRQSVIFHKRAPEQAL

Turning to `CN(CCN1CCC(OC(=O)Nc2ccccc2-c2ccccc2)CC1)C(=O)c1ccc(CN2CCC(C(N)=O)CC2)cc1` [compound of formula I, biphenyl-2-ylcarbamic acid 1-(2-{[4-(4-carbamoylpiperidin-1-ylmethyl)benzoyl]methylamino}ethyl)piperidin-4-yl ester], at hM3 receptor, the Ki (commonly the dissociation constant of the complex between target and ligand, obtained from inhibition or displacement) was below 5 nM. Also, the “PD2(50) for ACh-induced bronchoconstriction” value with guinea pigs is “less than 200 μg/mL”.
